The values that follow come from patent US7118873B2, “Polynucleotides encoding cellular transporters and methods of use thereof” (The University of Connecticut, priority 2000, dated 2006).

The target of one assay is T1, INDY (Drosophila melanogaster, UniProt Q9VVT2).
T1 construct: expressed in transfected cells; host or cells: Xenopus laevis oocytes (stage V and VI) injected with Indy mRNA
The experiment in a line: Inhibition of [14C] succinate uptake in Xenopus oocytes injected with Indy mRNA. It is filed as cell-based. As for the experimental part: Stage V and VI oocytes from Xenopus laevis were dissected and defoliculated. The oocytes were injected with 25–50 ng of Indy mRNA 1 day after isolation. Nutrient uptake was measured 6 to 7 days later. The oocytes were maintained at 18° C. in Barth's solution containing […] gentamycin sulfate, 2.5 mM sodium pyruvate, and 5% heat-inactivated horse serum (Coady et al., Arch. Biochem. Biophys. 283: 130–134, 1990; Pajor and Wright, J. Biol. Chem 26:, 3557–3560, 1992).
Transport measurements were performed as in Pajor, J. Biol. Chem. 270: 5779–5785, 1995. Groups of oocytes were first washed in choline buffer to remove the serum. Transport was initiated by adding 0.4 ml of [^14C] succinate or [^14C] citrate in buffer A. Buffer A comprises 100 mM NaCl, 2 mM KCl, 1 mM MgCl2, and 10 mM HEPES-Tris (pH 7.5). Buffer B is the same as buffer A except the NaCl is replaced by 100 mM choline Cl. For other cation replacement studies, the sodium was replaced by equimolar amounts of the other cations, as their chloride salts. At the completion of the transport time, the nutrient uptake was stopped with 4 washes of 4 ml of ice-cold buffer B. To count the amount of [^14C] taken up by the oocyte, each oocyte was dissolved in 0.5 ml of 10% SDS, and the [^14C] assayed by scintillation counting.
Studies of sodium dicarboxylate cotransporters have indicated a broad range of specificity for di- and tri-carboxylic acids and the exclusion of monocarboxylic acids. The transport specificity of Indy was thus determined as the ability of various compounds to inhibit the uptake of [^14C] succinate. The test inhibitors were added at a concentration of 1 mM, approximately a 100-fold excess of inhibitor.
The relative affinity of INDY for succinate and citrate was determined by adding a constant amount of [^14C] succinate and increasing concentrations of citrate to oocytes expressing INDY.
To further characterize INDY, inhibitors of transport were added to the Indy oocyte system. P-aminohippuric Acid (PAH) is a reference compound used to study transport mechanisms. 4,4′-Diisothyocyanostilbene-2,2′-disulfonic acid (DIDS) is a specific inhibitor of channels. Phloretin is an inhibitor of channels that is known to block protein kinase C.

In assay [1] the target is T2, rat sodium dicarboxylate cotransporter (Rattus norvegicus, UniProt P70545).
T2 sequence (P70545 1-587): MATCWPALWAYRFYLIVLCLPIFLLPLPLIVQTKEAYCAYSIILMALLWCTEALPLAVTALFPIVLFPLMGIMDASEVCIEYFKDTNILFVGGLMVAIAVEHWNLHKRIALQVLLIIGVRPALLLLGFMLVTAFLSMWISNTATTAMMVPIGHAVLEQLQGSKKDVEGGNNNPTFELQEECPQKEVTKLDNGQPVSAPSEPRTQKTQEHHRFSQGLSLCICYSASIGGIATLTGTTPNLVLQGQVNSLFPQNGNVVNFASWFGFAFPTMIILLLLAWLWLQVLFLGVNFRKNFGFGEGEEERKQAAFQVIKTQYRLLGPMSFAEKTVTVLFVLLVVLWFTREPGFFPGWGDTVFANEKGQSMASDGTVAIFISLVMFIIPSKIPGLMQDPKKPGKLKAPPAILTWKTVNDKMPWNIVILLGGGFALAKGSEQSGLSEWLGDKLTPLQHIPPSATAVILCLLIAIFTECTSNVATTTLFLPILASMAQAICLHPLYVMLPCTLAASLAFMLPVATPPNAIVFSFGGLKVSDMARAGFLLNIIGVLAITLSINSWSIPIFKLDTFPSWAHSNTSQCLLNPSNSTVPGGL
The note with it: cited from earlier work.

Where [2] appears, read: test inhibitor at 1 mM, approximately 100-fold excess, FIG. 14.

Like-named read-outs stand apart in the source and are kept apart here.

Broadly, the inhibition is the share of the control response that was lost under treatment.

T1 sequence (Q9VVT2 19-590 limits assumed): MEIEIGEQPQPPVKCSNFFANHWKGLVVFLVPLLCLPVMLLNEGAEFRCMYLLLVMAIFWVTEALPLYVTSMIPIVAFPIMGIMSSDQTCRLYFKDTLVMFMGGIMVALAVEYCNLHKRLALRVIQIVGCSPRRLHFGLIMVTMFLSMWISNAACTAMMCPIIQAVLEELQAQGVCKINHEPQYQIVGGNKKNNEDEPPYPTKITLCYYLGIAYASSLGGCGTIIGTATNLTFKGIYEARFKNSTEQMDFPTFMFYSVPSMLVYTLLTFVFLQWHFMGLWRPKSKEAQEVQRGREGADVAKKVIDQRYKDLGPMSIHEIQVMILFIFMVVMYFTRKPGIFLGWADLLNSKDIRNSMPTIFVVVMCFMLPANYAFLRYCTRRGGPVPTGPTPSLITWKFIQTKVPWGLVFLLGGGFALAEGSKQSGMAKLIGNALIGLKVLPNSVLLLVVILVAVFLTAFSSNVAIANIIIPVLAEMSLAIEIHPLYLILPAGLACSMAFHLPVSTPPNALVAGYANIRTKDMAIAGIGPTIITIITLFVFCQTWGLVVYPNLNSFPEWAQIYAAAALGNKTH

On to `O=C(O)CCC(=O)O` [succinate], for which the “inhibition of [14C] succinate uptake” value on INDY (setting [2]) is reported as about 100%.

With `N[C@@H](CCC(=O)O)C(=O)O` [glutamate], the “inhibition of succinate transport (in words)” value against INDY (setting [2]) is listed as “little inhibition”.

For the compound `O=S(=O)(O)c1cc(N=C=S)ccc1C=Cc1ccc(N=C=S)cc1S(=O)(=O)O` [DIDS, 4,4′-Diisothyocyanostilbene-2,2′-disulfonic acid], at INDY (0.1 mM DIDS, FIG. 18), the “inhibition of succinate transport” value worked out at 80%.

Take `O=C(CCc1ccc(O)cc1)c1c(O)cc(O)cc1O` [phloretin, Phloretin]: the “effect on succinate transport (in words)” value on INDY (1 mM phloretin, FIG. 18) is “no effect”. Besides, in assay [1], the “effect on inward and outward currents in sodium-dependent transport” value is “inhibit both inward and outward currents”.

Regarding `O=S(=O)(O)O` [sulfate], on INDY (setting [2]), the “inhibition of succinate transport (in words)” value is reported as “little inhibition”.

`O=C(O)CCC(=O)C(=O)O` [alpha-ketoglutarate]: the “inhibition of [14C] succinate uptake” value on INDY (setting [2]) is given as about 100%.

With `Nc1ccc(C(=O)NCC(=O)O)cc1` [PAH, P-aminohippuric Acid], the “effect on succinate transport (in words)” value on INDY (10 mM PAH, FIG. 18) is listed as “no effect”.

For the compound `CC(O)C(=O)O` (centres unmarked) [lactate], the “inhibition of succinate transport (in words)” value against INDY (setting [2]) is reported as “little inhibition”.

For the compound `O=C(O)/C=C/C(=O)O` [fumarate], the “inhibition of [14C] succinate uptake” value against INDY (setting [2]) was about 100%.

With `O=C(O)CC(O)(CC(=O)O)C(=O)O` [citrate], on INDY (citrate at 0.1 mM, FIG. 17), the inhibition at 100 µM was about 50%. The inhibition at 1000 µM at INDY (citrate at 1 mM, FIG. 17, read-out: inhibition of succinate uptake) is about 90%; at INDY (test inhibitor at 1 mM, approximately 100-fold excess, FIG. 14, read-out: inhibition of [14C] succinate uptake), about 100%. In addition, the “inhibition of succinate uptake (in words)” value against INDY (citrate at 10 mM, FIG. 17) was “completely inhibits”.
